Reference: PMC10895676, “Antiviral Activity of Lipophilic Nucleoside Tetraphosphate Compounds” (Journal of Medicinal Chemistry, 2024)
Where two headings read alike, the source gives them in different places.

What was measured:
[1] = Chemical hydrolysis in aqueous buffers (PBS pH 7.3 / 8.0, citrate buffer pH 2.0), RP18-HPLC; format: physicochemical; details: for half-life at 1.9 mM: phosphate buffered saline
Procedure: All metabolite mixtures were analyzed and quantified by means of analytical RP18-HPLC (UV detection).
The solution was incubated at 37 °C in a thermomixer. […] for each extraction and stored at −30 °C. When testing, samples were warmed up to room temperature, and 25 or 20 μL of the liquid was taken and injected into the analytical RP-18-HPLC instrument. Further aliquots were taken for monitoring the kinetic hydrolysis.
5.88 g of citric acid and 3.58 g of NaCl were dissolved in 82 mL of hydrochloric acid (0.1 mol/L). Then, sodium hydroxide was added to adjust the pH to 2.0.

HIV-1 (HE) [2] = experiment: Anti-HIV replication assay, HIV-1 (HE) in wild-type CEM/0 cells; format: cell-based; details: Human immunodeficiency virus 1, CCRF-CEM; wild-type CEM/0 cells; mean ± SD, n = 2–3; read-out: HIV-1 (HE) EC50
Procedure: (§1) Inhibition of HIV-1(HE)- and HIV-2(ROD)-induced cytopathogenicity in wild-type CEM/0 CEM CD4^+ T-cells and thymidine kinase-deficient CEM/TK^– cell cultures was measured in microtiter 96-well plates containing ∼3 × 10^5 CEM cells/mL infected with 100 CCID50 of HIV per milliliter and containing appropriate dilutions of the test compounds. After 4–5 days of incubation at 37 °C in a CO2-controlled humidified atmosphere, virus-induced cellular effects and syncytia cell formation were examined microscopically. The EC50 (50% effective concentration) was defined as the compound concentration required to inhibit HIV-induced giant cell formation by 50%.

HIV-2 (ROD) [3] = experiment: Anti-HIV replication assay, HIV-2 (ROD) in wild-type CEM/0 cells; format: cell-based; details: for selectivity index (SI): CC50/EC50, HIV-2 (ROD) in CEM cells; for EC50: Human immunodeficiency virus 2, CCRF-CEM, wild-type CEM/0 cells, mean ± SD, n = 2–3, read-out: HIV-2 (ROD) EC50
Procedure: as §1, with “microscopically.” for “microscopically. The EC50 (50% effective concentration) was defined as the compound concentration required to inhibit HIV-induced giant cell formation by 50%.”

HIV-2 (ROD) [4] = experiment: Anti-HIV replication assay, HIV-2 (ROD) in thymidine kinase-deficient CEM/TK– cells; format: cell-based; details: for selectivity index (SI): CC50/EC50, HIV-2 (ROD) in CEM/TK– cells; for EC50: Human immunodeficiency virus 2, CEM/TK– cells, mean ± SD, n = 2–3, read-out: CEM/TK– HIV-2 (ROD) EC50
Procedure: as §1, with “microscopically.” for “microscopically. The EC50 (50% effective concentration) was defined as the compound concentration required to inhibit HIV-induced giant cell formation by 50%.”

[5] = Cytotoxicity, inhibition of CEM cell proliferation; format: cell-based; details: human, CEM cells (CD4+ T-cells), read-out: toxicity CC50
[6] = Cytotoxicity, inhibition of CEM/TK– cell proliferation; format: cell-based; details: human, CEM/TK– cells (CD4+ T-cells), read-out: toxicity CC50
pig liver esterase (PLE) [7] = tested on: pig liver esterase (PLE); set-up: method as in PMID 26503889; details: cited from earlier work
[8] = PBS; cited from earlier work
HIV-1 (HE) [9] = details: CEM/0 cells; cited from earlier work
CD4+ T-cell (CEM) = details: CEM cell proliferation; read-out: toxicity CC50; cited from earlier work
[10] = Hydrolysis in CEM/0 cell extracts; format: in vitro ADME; details: human, 37 °C, read-out: CEM/0 cell extracts t1/2 (converted)
Procedure: Next, TetraPPPPro-nucleotides 4–9 were incubated in human CD4^+ T-lymphocyte CEM/0 cell extracts to study their stability and identify the hydrolysis products.
CEM cells were grown in RPMI-1640-based cell culture medium to a final density of ∼3 × 10^6 cells/mL. Cells were centrifuged for 10 min at 1250 rpm at 4 °C and washed twice with cold PBS, and the pellet was resuspended at 10^8 cells/mL and sonicated (Hielscher Ultrasound Techn., 100% amplitude, 3·times for 10 s) to destroy cell integrity. Next, the resulting cell suspension was centrifuged at 10,000 rpm to remove cell debris. Finally, the supernatant was divided into aliquots and frozen at −80 °C.
(§2) 6.0 mM hydrolysis solutions of compounds 4–9 were prepared from 21 μL of 50 mM DMSO stock solutions and 154 μL of DMSO. Two different samples, including 10 μL of water and 10 μL of 6.0 mM hydrolysis solution, were prepared in 2 mL Eppendorf vials. Next, 50 μL of human CEM cell extracts or 50 μL of human citrate plasma were added to the mixture, the reaction was started, and the mixture was incubated at 37 °C for different time periods. The reactions were stopped by the addition of 150 μL of MeOH. The resulting suspension was kept on ice for 5 min, followed by defrosting and centrifugation at 14,000 rpm (Heraeus, Biofuge Pico) for 22 min. The supernatants (80 or 60 μL) were directly injected into HPLC. The calculation of t1/2 was performed analogously to that for the chemical hydrolysis studies.

pig liver esterase (PLE) [11] = experiment: Enzymatic hydrolysis with pig liver esterase (PLE); format: in vitro ADME; details: pig liver esterase in phosphate buffer, PLE in phosphate buffer pH 7.3, 37 °C, read-out: PLE t1/2 (converted)
Procedure: To confirm the enzymatic hydrolysis process, TetraPPPPro-nucleotides 4–9 bearing different kinds of lipophilic groups attached to the δ-phosph(on)ate group were incubated with PLE in phosphate buffer.
Then, 833 μL of 50 mM phosphate buffer (pH 7.3) and 125 μL of DMSO were added to the 6.0 mM hydrolysis solutions. The reaction was started by addition of 62.5 μL of PLE in phosphate buffer (100 units/mL), and the mixture was incubated at 800 rpm at 37 °C in a thermomixer. (1). At different times, aliquots (75 μL) were taken and stopped by the addition of […] of MeOH. The mixture was stored in liquid nitrogen. When testing, samples were warmed up to room temperature, and 60 μL of the liquid was directly injected into HPLC analysis. (2). 40 μL for each extraction was stored in liquid nitrogen. When testing, samples were warmed up to room temperature, and 30 μL of the liquid was taken and injected into the analytical RP-18-HPLC instrument. The calculation of t1/2 was performed analogously to that for the chemical hydrolysis studies.

[12] = Hydrolysis in citrate-stabilized human plasma; format: in vitro ADME; details: 37 °C, read-out: t1/2 in citrate-stabilized human plasma (converted)
Procedure: Finally, the supernatant was divided into aliquots and frozen at −80 °C.
as §2, with “Two” for “6.0 mM hydrolysis solutions of compounds 4–9 were prepared from 21 μL of 50 mM DMSO stock solutions and 154 μL of DMSO. Two”

[13] = PBS, pH 8.0, 37 °C, read-out: PBS pH 8.0 t1/2 (converted)
[14] = 25 mM PBS, pH 7.3, 37 °C, read-out: PBS pH 7.3 t1/2 (converted)

Row | SMILES | half-life at 1.9 mM [1, 13] [h] | EC50 (HIV-1 (HE) [2]) [µM] | EC50 (HIV-2 (ROD) [3]) [µM] | EC50 (HIV-2 (ROD) [4]) [µM] | half-life ([1]; 25 mM citrate buffer, pH 2.0, 37 °C) [h] | half-life at 1.9 mM [1, 14] [h] | half-life at 0.86 mM [10] [h] | half-life at 0.45 mM (pig liver esterase (PLE) [11]) [h] | half-life at 0.86 mM [12] [h] | selectivity index (SI) (HIV-2 (ROD) [3]) | selectivity index (SI) (HIV-2 (ROD) [4]) | CC50 [5] [µM] | CC50 [6] [µM] | PLE t1/2 (pig liver esterase (PLE) [7]) | PBS pH 7.3 t1/2 [8] | EC50 (HIV-1 (HE) [9]) [µM] | CC50 (CD4+ T-cell (CEM)) [µM]
1 | CCCCCCCCCCCCCCCCCCP(=O)(OCc1ccc(OC(=O)CCCC)cc1)OP(=O)(O)OP(=O)(O)OC[C@@H]1C=C[C@H](n2cc(C)c(=O)[nH]c2=O)O1 (stereo partly shown) [2b, γ-(AB-C4)-γ-C-(C18)-d4TTP] |  |  |  |  |  |  |  |  |  |  |  |  |  |  | 646 h | 0.0074 ± 0.0014 | 19
2 | CCCCCCCCCCCCCCCCCCOP(=O)(OCCCC)OP(=O)(O)OP(=O)(O)OC[C@@H]1C=C[C@H](n2cc(C)c(=O)[nH]c2=O)O1 (stereo partly shown) [3a, γ-(alkyl-C4; alkyl-C18)-d4TTP] |  |  |  |  |  |  |  |  |  |  |  |  |  |  |  |  | 30
3 | CCCCCCCCCCCCCCCCCCP(=O)(OCCCC)OP(=O)(O)OP(=O)(O)OC[C@@H]1C=C[C@H](n2cc(C)c(=O)[nH]c2=O)O1 (stereo partly shown) [3b, γ-(alkyl-C4)-γ-C-(alkyl-C18)-d4TTP] |  |  |  |  |  |  |  |  |  |  |  |  |  |  | > 1700 h |  | 33

The next lines start with results.

Row | half-life at 1.9 mM [1, 13] [h] | EC50 (HIV-1 (HE) [2]) [µM] | EC50 (HIV-2 (ROD) [3]) [µM] | EC50 (HIV-2 (ROD) [4]) [µM] | half-life ([1]; 25 mM citrate buffer, pH 2.0, 37 °C) [h] | half-life at 1.9 mM [1, 14] [h] | half-life at 0.86 mM [10] [h] | half-life at 0.45 mM (pig liver esterase (PLE) [11]) [h] | half-life at 0.86 mM [12] [h] | SMILES | selectivity index (SI) (HIV-2 (ROD) [3]) | selectivity index (SI) (HIV-2 (ROD) [4]) | CC50 [5] [µM] | CC50 [6] [µM] | PLE t1/2 (pig liver esterase (PLE) [7]) | PBS pH 7.3 t1/2 [8] | EC50 (HIV-1 (HE) [9]) [µM] | CC50 (CD4+ T-cell (CEM)) [µM]
4 | 68 | 0.042 ± 0.02 | 0.066 ± 0.026 | 0.29 ± 0.19 |  |  |  |  |  | CCCCCCCCCC(=O)Oc1ccc(COP(=O)(OCc2ccc(OC(=O)CCCCCCCCC)cc2)OP(=O)(O)OP(=O)(O)OC[C@@H]2C=C[C@H](n3cc(C)c(=O)[nH]c3=O)O2)cc1 [1a, γ-(AB-C9; AB-C9)-d4TTP, reference compound] | 1109 | 172 | 73.2 | 50 | 0.082[43] h | 44[43] h |  | 
5 | 99 | 0.083 ± 0.018 | 0.063 ± 0.032 | 0.059 ± 0.054 | 27 | 77 | 6.67 | 1.06 | 2.1 | CCCCCCCCCCCCCCCCCCOP(=O)(OCc1ccc(OC(=O)CCCC)cc1)OP(=O)(O)OP(=O)(O)OP(=O)(O)OC[C@@H]1C=C[C@H](n2cc(C)c(=O)[nH]c2=O)O1 (stereo partly shown) [compound 6, δ-(AB-C4; alkyl-C18)-d4T4P] | 643 | 813 | 40.5 | 48 |  |  |  | 
6 |  | 0.39 ± 0.16 | 0.26 ± 0.14 | 4.44 ± 1.54 |  | 26 | 1.37 | 0.07 | 2.8 | CCCCCCCCCC(=O)Oc1ccc(COP(=O)(OCc2ccc(OC(=O)CCCCCCCCC)cc2)OP(=O)(O)OP(=O)(O)OP(=O)(O)OC[C@@H]2C=C[C@H](n3cc(C)c(=O)[nH]c3=O)O2)cc1 [compound 8, δ-(AB-C9; AB-C9)-d4T4P] | 173 | 11 | 45 | 50 |  |  |  | 
